Measurements: US20210239681A1, “COMPOSITIONS AND METHODS FOR […] OF […]-BASED IMMUNOTHERAPEUTICS” (ADVAXIS, INC., priority 2018, published 2021)

Tests used:
Assay type in all cases: cell-based, human
THP-1 cells [1] = experiment: Cytokine production by THP-1 in the absence of T cells; design: IL-6: unit not given here
Description: Analysis Kits and Reagents: Analysis of cytokine concentrations in culture medium used the U-plex assay kits from Meso Scale Discovery. Expression of T cell receptors specific for E7 peptide bound to HLA-A*02:01 was detected using HLA-A*02:01/peptide tetramers from MBL International (Woburn, Mass.).
Infection of THP-1: The THP-1 cell line was infected with either ADXS11-001 or XFL7 by incubating 10^6 cells with dilutions of bacteria in a 1 mL volume of RPMI 1640 10% FBS. […] After incubation with gentamicin the cells were washed again and resuspended to the desired cell concentration.
T cell cytokine expression analysis. An initial experiment using THP-1 as antigen presenting cells was performed using a T cell culture containing 6% E7 (11-20) specific T cells based upon staining with HLA-A*02:01/peptide tetramer. THP-1 cells were infected as described using two different concentrations of bacteria and then co-cultured with the T cells. Controls included uninfected THP-1 cells and THP-1 cells incubated with (exposed to) either the 9mer or 10mer peptide for one hour. After an overnight co-culture, medium was collected for analysis of cytokines.
To further explore the importance of the overnight incubation of infected THP-1, THP-1 cells infected overnight were compared to THP-1 cells infected for 2 hours. T cells specific for 9mer and 10mer peptides were co-cultured with each of the THP-1 cells and with uninfected or peptide exposed THP-1. As before, medium was collected after an overnight co-culture and cytokines were measured.
(§1) Titration studies with different multiplicity of infection (MOI). THP cells were infected for 2 hours with 3 different dilutions (MOI) of Listeria. Infected or uninfected THP cells were then cultured overnight for 24 hours before co-culturing the T cells. Cells were co-cultured overnight before cytokine analysis.

PBMC = experiment: Cytokine release by donor PBMC cultured with peptide; design: unit not given beside the values; settings: release on antigen
Description: Peripheral blood mononuclear cells (PBMCs) samples were collected from three human HLA-A*02:01 donors: 358, 213, and 224. The peripheral blood mononuclear cells (PBMCs) were cultured with one of two E7 peptides: […] (9mer or 1T; SEQ ID NO: 100) or […] (10mer or 2T; SEQ ID NO: 101). After 10 days culture, the PBMCs were tested for E7 peptide binding staining and cytokine release.

THP-1 cells [2] = experiment: Intracellular cytokine staining of THP-1 cells; settings: FIGS. 3A-3C, FIG. 10
Description: To identify cytokines that can be used to measure potency of a Listeria-based therapeutic the following tests were performed. Intracellular cytokine staining was used to detect T cells specificity. THP-1 were incubated with peptide overnight, mixed with T cells from above and centrifuged. The collected cells were then co-cultured at 37° C. for 1 hour. Brefeldin A was then added and the cells were co-cultured for another 4 hours. Brefeldin A inhibits secretion and permits analysis by flow cytometry. Cell were then stained to identify dead cells and CD8+ cells. The cell were then fixed and stained for IFNγ (using fix and permeabilization buffer from eBioscience/Invitrogen).
Intracellular cytokine staining of THP-1 cells.

HPV E7 Specific T cells = experiment: THP-1/T cell co-culture: MOI, infection time and cell ratio titration; design: IFNγ / IL-1β / IL-6 / TNF-α: unit not given here; settings: for IFNγ production / IFNγ / IL-1β / IL-6 / TNF-α: THP-1 + peptide; for IFNγ production: THP-1 Cells 40000
Description: A separate experiment was performed with a range of MOI and 5 hours infection time. In this experiment only IFNγ was measured since this cytokine is only made by the T cells, not THP-1 cells. While there was still recognition of the ADXS11-001 infected THP-1 cells it was not as great as that observed in overnight cultures when compared to the peptide incubated THP-1.
The MOI used for infection was varied over a range of bacterial concentration. In Table 12 the effect of the different MOI on cytokine secretion by THP-1 is shown. […] Secretion of IFNγ by the T cells was related to the MOI with higher MOI stimulating higher IFNγ production, though there was significant IFNγ at all MOI.
Cell number and ratio of T cells to THP-1 cells was also analyzed. The above experiments all used 20,000 T cells and 20,000 THP-1 cells per well (1:1 ratio). We initially investigated the effect of cell number using THP-1 incubated with peptide. The number of both T cells and THP-1 were varied. THP-1 cells ranging from 40,000 cells to 5000 cells per well were incubated with T cells ranging from 20,000 to 5000 cells per well. Effect of varying THP-1 to T cell ratio on IFNγ production was investigated at both higher (1 μg/ml) and lower (0.1 μg/ml) peptide concentrations.
We investigated if this effect is reproducible in infected THP cells. Varying concentration of infected THP-1 cells ranging from 40000 to 10000 cells per well were incubated with T cells ranging from 40000 to 10000 cells per well to identify the optimum cell ratio for the assay. The effect of cell ratio on IFNγ production is similar to the effect observed with peptide incubation.
as §1

[3] = Cytokine secretion by THP-1 after infection or + E7 peptide (No T cells), mean of triplicate
[4] = THP-1 + peptide, THP-1 cell alone
[5] = THP-1 + peptide, THP-1 cells only
[6] = THP-1 incubated with peptide, absence of T cells

Sequence: YMLDLQPETT [10mer]
- IFNγ production, THP-1 alone (THP-1 cells [1]; 50 μg/mL gentamicin, Listeria MOI of 10, optical density): 0.058
- IFNγ (THP-1 cells [1]; [3]): 36.7 pg/mL
- IL-1β (THP-1 cells [1]; [3]): 0.2 pg/mL
- IL-2 (THP-1 cells [1]; [3]): 4.6 pg/mL
- IL-4 (THP-1 cells [1]; [3]): 0.6 pg/mL
- IL-5 (THP-1 cells [1]; [3]): <LLOD
- IL-8 (THP-1 cells [1]; [3]): 11.8 pg/mL
- IL-10 (THP-1 cells [1]; [3]): 0.4 pg/mL
- IL-12p70 (THP-1 cells [1]; [3]): 0.3 pg/mL
- IL-13 (THP-1 cells [1]; [3]): <LLOD
- TNF-α (THP-1 cells [1]; [3]): 15.5 pg/mL
- IFNγ (THP-1 cells [1]; [4]): 9
- IL-1β (THP-1 cells [1]; [4]): 0
- IL-6 (THP-1 cells [1]; [4]): <LLOD
- TNF-α (THP-1 cells [1]; [4]): <LLOD
- IFNγ (THP-1 cells [1]; [5]): 1
- IL-1β (THP-1 cells [1]; [5]): 0
- IL-6 (THP-1 cells [1]; [5]): 6
- TNF-α (THP-1 cells [1]; [5]): 104
- IFNγ (THP-1 cells [1]; THP-1 alone, peptide exposed): <LLOD
- IL-1β (THP-1 cells [1]; THP-1 alone, peptide exposed): <LLOD
- IL-2 (THP-1 cells [1]; THP-1 alone, peptide exposed): <LLOD
- IL-5 (THP-1 cells [1]; THP-1 alone, peptide exposed): <LLOD
- IL-6 (THP-1 cells [1]; THP-1 alone, peptide exposed): <LLOD
- IL-10 (THP-1 cells [1]; THP-1 alone, peptide exposed): <LLOD
- IL-12p70 (THP-1 cells [1]; THP-1 alone, peptide exposed): <LLOD
- IL-13 (THP-1 cells [1]; THP-1 alone, peptide exposed): <LLOD
- TNF-α (THP-1 cells [1]; THP-1 alone, peptide exposed): 0
- IFNγ (THP-1 cells [1]; [6]): <LLOD
- IL-1β (THP-1 cells [1]; [6]): 0.1
- IL-2 (THP-1 cells [1]; [6]): <LLOD
- IL-4 (THP-1 cells [1]; [6]): <LLOD
- IL-6 (THP-1 cells [1]; [6]): <LLOD
- IL-8 (THP-1 cells [1]; [6]): 8.1
- IL-10 (THP-1 cells [1]; [6]): <LLOD
- IL-12p70 (THP-1 cells [1]; [6]): <LLOD
- IL-13 (THP-1 cells [1]; [6]): <LLOD
- TNF-α (THP-1 cells [1]; [6]): <LLOD
- IFNγ Mean (PBMC; donor 213 PBMC cultured with 1T peptide): 86.6
- IFNγ Mean (PBMC; donor 358 PBMC stimulated with 1T): 183.9
- IFNγ Mean (PBMC; donor 358 PBMC stimulated with 2T): 359.8
- Basal IFNγ in THP-1 cells after stimulation with peptide (THP-1 cells [2]): not detectable
- IFNγ production (HPV E7 Specific T cells; T Cells 10000): 8078
- IFNγ production (HPV E7 Specific T cells; T Cells 20000): 17968
- IFNγ production (HPV E7 Specific T cells; T Cells 40000): 34161
- IFNγ (HPV E7 Specific T cells; THP/T cell co-culture): 33835
- IL-1β (HPV E7 Specific T cells; THP/T cell co-culture): 3
- IL-6 (HPV E7 Specific T cells; THP/T cell co-culture): 23
- TNF-α (HPV E7 Specific T cells; THP/T cell co-culture): 697
- IFNγ (HPV E7 Specific T cells; co-culture with T cells): 65099
- IL-1β (HPV E7 Specific T cells; co-culture with T cells): 6
- IL-6 (HPV E7 Specific T cells; co-culture with T cells): 1243
- TNF-α (HPV E7 Specific T cells; co-culture with T cells): 2309
- IFNγ Mean (HPV E7 Specific T cells; THP-1 incubated with peptide, mean of triplicate): 41305 pg/mL
